From ChEMBL document CHEMBL1158200, “Coriadienin, the first annonaceous acetogenin with two double bonds isolated from Annona coriaceae” (J Nat Prod, 1996) come the findings set out here.

Values after ≈ are worked out from the molar mass of the structure shown. Where only a bound is given, the exact number is not on record here.

The subject of series [1] is KB. Put plainly: Cytotoxicity against human KB cells. Format: functional.
Series [2] can be described thus: Cytotoxicity against african green monkey Vero cells. The settings on record: chlorocebus sabaeus, read-out: ED50 (the source's name). Type of series: cell-based.

Turning to `CCCCCCCCCCCC[C@H](O)[C@@H](O)CC/C=C\CC[C@@H](O)[C@H]1CCC(CCCCCCCC2=CC(C)OC2=O)O1` (some centres not stated), the ED50 in series [1] is 6 ×10⁻⁴ ug/ml. Moreover, the CC50 in series [2] was 0.05 µg/mL (≈ 0.0824 µM).
Taken in the same sequence, the figures for `CCCCCCCCCCCC[C@H](O)[C@@H](O)CCC1OC1CCC1OC1CCC(O)CCCCCC(O)CC1=CC(C)OC1=O` (some centres not stated) [BISEPOXYCORIADIENIN] were 2.5 ×10⁻⁷ ug/ml and 0.013 µg/mL (≈ 0.0203 µM).
The matching figures for `CCCCCCCCCCCC[C@H](O)[C@@H](O)CC/C=C\CC[C@@H](O)[C@H]1CCC(CCCCCC(O)CC2=CC(C)OC2=O)O1` (some centres not stated) [CORIACIN]: under 3 ×10⁻⁷ ug/ml and 0.0057 µg/mL (≈ 0.00915 µM).
The matching figures for `CCCCCCCCCCCC[C@H](O)[C@@H](O)CC/C=C\CC/C=C\CCC(O)CCCCCC(O)CC1=CC(C)OC1=O` (some centres not stated) [CORIADIENIN]: 1.6 ×10⁻⁶ ug/ml and 0.15 µg/mL (≈ 0.247 µM).
In turn, `CCCCCCCCCCCCCCC(O)C(O)CC[C@H](O)[C@H]1CC[C@H](CCCCC[C@@H](O)CC2=C[C@H](C)OC2=O)O1` (some centres not stated) [GIGANTETRONENIN] registered an ED50 in series [1] of under 3 ×10⁻⁷ ug/ml. In series [2], the CC50 turned out to be 0.0057 µg/mL (≈ 0.00955 µM).
Turning to `CC(=O)O[C@H]1C(=O)[C@@]2(C)[C@H]([C@H](OC(=O)c3ccccc3)[C@]3(O)C[C@H](OC(=O)[C@H](O)[C@@H](NC(=O)c4ccccc4)c4ccccc4)C(C)=C1C3(C)C)[C@]1(OC(C)=O)CO[C@@H]1C[C@@H]2O` [PACLITAXEL], the EC50 in series [1] (Homo sapiens, KB, read-out: ED50 (the source's name)) came out at 0.02 µg/mL (≈ 0.0234 µM). In addition, the CC50 in series [2] is over 0.3 µg/mL.
